Several values for one entry are separate records, joined by “and”; a condition that tells them apart may be missing. Identical values can stand only once.
Legend:
Assay type in all cases: biochemical
[1] = test system: UGT enzymes of human liver microsomes; experiment: Inhibition of raloxifene glucuronidation (G1, G2) in human liver microsomes; details: for % of control metabolism (SD, n = 3), raloxifene glucuronide G1 / % of control metabolism (SD, n = 3), raloxifene glucuronide G2: human liver microsomes 250 μg/ml, 15 min
From the text: (§1) Compounds were eluted using a binary solvent gradient system. […] Solvent B was methanol. […] Detection was at 280 nm.

[2] = test system: UGT enzymes of pooled human jejunum microsomes; experiment: Inhibition of raloxifene glucuronidation (G1, G2) in pooled human jejunum microsomes; details: jejunum HJ61; inhibitor 50 μM
Procedure: as §1
Standardized incubations utilized […] microsomal protein, 1 mM UDPGA and a 30 min incubation time.

[3] = target: T1, UGT enzymes of human liver microsomes (Homo sapiens, UniProt P16662); experiment: Inhibition of zidovudine glucuronidation in human liver microsomes; details: liver lot 062101
T1 construct: residual metabolism (percentage of control), zidovudine glucuronidation; other: liver lot 062101; residual metabolism (percentage of control), zidovudine glucuronidation; residual metabolism (percentage of control)
T1 sequence (P16662 1-529): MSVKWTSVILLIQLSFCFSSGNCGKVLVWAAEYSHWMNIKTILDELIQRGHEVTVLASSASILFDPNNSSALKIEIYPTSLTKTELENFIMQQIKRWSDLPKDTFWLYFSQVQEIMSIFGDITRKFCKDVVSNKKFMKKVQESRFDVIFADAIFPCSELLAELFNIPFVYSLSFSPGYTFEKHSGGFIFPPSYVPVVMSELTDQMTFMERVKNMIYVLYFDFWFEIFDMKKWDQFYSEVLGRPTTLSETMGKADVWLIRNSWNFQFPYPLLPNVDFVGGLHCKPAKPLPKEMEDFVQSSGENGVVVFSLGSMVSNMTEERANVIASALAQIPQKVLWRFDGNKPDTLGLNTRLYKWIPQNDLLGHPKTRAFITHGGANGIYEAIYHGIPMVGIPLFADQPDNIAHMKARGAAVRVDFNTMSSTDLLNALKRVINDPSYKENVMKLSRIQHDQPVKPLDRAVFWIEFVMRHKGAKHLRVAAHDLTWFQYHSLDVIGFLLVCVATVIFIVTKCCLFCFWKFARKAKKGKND
Procedure: Compounds were eluted using a binary solvent gradient system where solvent A was dilute phosphoric acid (pH 3) and solvent B was acetonitrile.
Standardized incubations utilized 500 μM zidovudine substrate, 1 mg/ml microsomal protein, 5 mM UDPGA and a 30 min incubation time. […] Int.

[4] = test system: T2, UGT enzymes of human liver microsomes; experiment: Inhibition of labetalol glucuronidation (LG1, LG2) in human liver microsomes; details: labetalol 50 μM
T2 construct: residual metabolism (percentage of control), labetalol LG1; other: labetalol 50 μM; residual metabolism (percentage of control), labetalol LG1; residual metabolism (percentage of control), labetalol LG2; inhi

[5] = test system: UGT enzymes of human liver microsomes; experiment: Inhibition of estradiol (E2) glucuronidation in human liver microsomes; details: E2 50 μM
From the text: (§2) Compounds were eluted using a binary solvent gradient system where solvent A was dilute phosphoric acid (pH 3) and solvent B was 80:20 acetonitrile-methanol. […] Detection was at 280 nm.

[6] = test system: T3, UGT enzymes of human liver microsomes; experiment: as above; details: liver 032101, E2 50 μM
T3 construct: residual metabolism (% of control), E2-17-β-D-glucuronide; other: liver 032101; residual metabolism (% of control), E2-17-β-D-glucuronide
From the text: as §2

[7] = test system: T4, UGT enzymes of human liver microsomes; experiment: as above; details: liver 032101, E2 50 μM
T4 construct: residual metabolism (% of control), E2-3-β-D-glucuronide; other: liver 032101; residual metabolism (% of control), E2-3-β-D-glucuronide
From the text: as §2

[8] = test system: T5, UGT enzymes of human liver microsomes; experiment: Inhibition of 2ME2 glucuronidation (MG1, MG2) in human liver microsomes; details: liver 062101, 2ME2 50 μM
T5 construct: other: liver 062101
From the text: as §2

[9] = test system: UGT enzymes of pooled human jejunum microsomes; experiment: Inhibition of 2ME2 glucuronidation (MG1) in pooled human jejunum microsomes; details: jejunum HJ61, 2ME2 50 μM
From the text: as §2

[10] = inhibitor 2 μM, raloxifene 50 μM
[11] = inhibitor 5 μM, raloxifene 50 μM
[12] = inhibitor 10 μM, raloxifene 50 μM
[13] = inhibitor 25 μM, raloxifene 50 μM
[14] = inhibitor 50 μM, raloxifene 50 μM
[15] = inhibitor 100 μM, raloxifene 50 μM
[16] = inhibitor 500 μM, raloxifene 50 μM
[17] = liver lot 032101, inhibitor 50 μM
[18] = liver lot 062101, inhibitor 50 μM
[19] = liver lot 083000, inhibitor 50 μM
[20] = raloxifene 50 μM, inhibitor 10 μM
[21] = raloxifene 50 μM, inhibitor 25 μM
[22] = raloxifene 50 μM, inhibitor 50 μM
[23] = raloxifene 50 μM, inhibitor 100 μM

Question: What does the source list for O=c1c(O)c(-c2ccc(O)c(O)c2)oc2cc(O)cc(O)c12 [Quercetin]?
Answer: % of control metabolism (SD, n = 3), raloxifene glucuronide G1 [1, 10]: 82 (6) %; % of control metabolism (SD, n = 3), raloxifene glucuronide G1 [1, 11]: 69 (1) %; % of control metabolism (SD, n = 3), raloxifene glucuronide G1 [1, 12]: 48 (1) %; % of control metabolism (SD, n = 3), raloxifene glucuronide G1 [1, 13]: 18 (1) %; % of control metabolism (SD, n = 3), raloxifene glucuronide G1 [1, 14]: 8 (1) %; % of control metabolism (SD, n = 3), raloxifene glucuronide G1 [1, 15]: 6 (2) %; % of control metabolism (SD, n = 3), raloxifene glucuronide G1 [1, 16]: 0 (0) %; % of control metabolism (SD, n = 3), raloxifene glucuronide G2 [1, 10]: 78 (3) %; % of control metabolism (SD, n = 3), raloxifene glucuronide G2 [1, 11]: 67 (2) %; % of control metabolism (SD, n = 3), raloxifene glucuronide G2 [1, 12]: 50 (1) %; % of control metabolism (SD, n = 3), raloxifene glucuronide G2 [1, 13]: 25 (1) %; % of control metabolism (SD, n = 3), raloxifene glucuronide G2 [1, 14]: 15 (1) %; % of control metabolism (SD, n = 3), raloxifene glucuronide G2 [1, 15]: 13 (2) %; % of control metabolism (SD, n = 3), raloxifene glucuronide G2 [1, 16]: 0 (0) %; % of control metabolism, raloxifene G1 [1, 17]: 25 (1) %; % of control metabolism, raloxifene G2 [1, 17]: 35 (1) %; % of control metabolism, raloxifene G1 [1, 18]: 34 (3) %; % of control metabolism, raloxifene G2 [1, 18]: 35 (3) %; % of control metabolism, raloxifene G1 [1, 19]: 8 (1) %; % of control metabolism, raloxifene G2 [1, 19]: 15 (1) %; % of control metabolism, raloxifene G1 [1, 20]: 48 (1) %; % of control metabolism, raloxifene G2 [1, 20]: 50 (1) %; % of control metabolism, raloxifene G1 [1, 21]: 18 (1) %; % of control metabolism, raloxifene G2 [1, 21]: 25 (1) %; % of control metabolism, raloxifene G1 [1, 22]: 8 (1) %; % of control metabolism, raloxifene G2 [1, 22]: 15 (1) %; % of control metabolism, raloxifene G1 [1, 23]: 6 (2) %; % of control metabolism, raloxifene G2 [1, 23]: 13 (2) %; % of control metabolism, raloxifene G1 [2]: 25 (1) %; % of control metabolism, raloxifene G2 [2]: 37 (2) %; residual metabolism (percentage of control), zidovudine glucuronidation ([3]; inhibitor 100 μM): 94 (8) %; residual metabolism (percentage of control), zidovudine glucuronidation ([3]; inhibitor 200 μM): 64 (4) %; residual metabolism (percentage of control), labetalol LG1 ([4]; inhibitor 50 μM): 78 (4) %; residual metabolism (percentage of control), labetalol LG2 ([4]; inhibitor 50 μM): 70 (3) %; residual metabolism (percentage of control), labetalol LG1 ([4]; inhibitor 100 μM): 56 (8) % and 49 (7) %; residual metabolism (percentage of control), labetalol LG2 ([4]; inhibitor 100 μM): 47 (6) % and 43 (9) %; residual metabolism (% of control), E2-3-β-D-glucuronide ([5]; liver 032101, inhibitor 25 μM): 58 (1) %; residual metabolism (% of control), E2-17-β-D-glucuronide ([5]; liver 032101, inhibitor 25 μM): 94 (3) %; residual metabolism (% of control), E2-3-β-D-glucuronide ([5]; liver 062101, inhibitor 25 μM): 56 (3) %; residual metabolism (% of control), E2-17-β-D-glucuronide ([5]; liver 062101, inhibitor 25 μM): 83 (1) %; residual metabolism (% of control), E2-3-β-D-glucuronide ([5]; liver 062101, inhibitor 50 μM): 30 (1) %; residual metabolism (% of control), E2-17-β-D-glucuronide ([5]; liver 062101, inhibitor 50 μM): 69 (1) %; residual metabolism (% of control), E2-3-β-D-glucuronide ([5]; liver 062101, inhibitor 100 μM): 19 (1) %; residual metabolism (% of control), E2-17-β-D-glucuronide ([5]; liver 062101, inhibitor 100 μM): 57 (2) %; residual metabolism (% of control), E2-17-β-D-glucuronide ([6]; inhibitor 50 μM): 72 (6) %; residual metabolism (% of control), E2-17-β-D-glucuronide ([6]; inhibitor 100 μM): 50 (3) %; residual metabolism (% of control), E2-3-β-D-glucuronide ([7]; inhibitor 50 μM): 29 (1) %; residual metabolism (% of control), E2-3-β-D-glucuronide ([7]; inhibitor 100 μM): 10 (1) %; residual metabolism (% of control), 2ME2 MG1 ([8]; inhibitor 25 μM): 63 (3) %; residual metabolism (% of control), 2ME2 MG2 ([8]; inhibitor 25 μM): 87 (3) %; residual metabolism (% of control), 2ME2 MG1 ([8]; inhibitor 50 μM): 30 (4) %; residual metabolism (% of control), 2ME2 MG2 ([8]; inhibitor 50 μM): 68 (3) %; residual metabolism (% of control), 2ME2 MG1 ([8]; inhibitor 100 μM): 15 (0) %; residual metabolism (% of control), 2ME2 MG2 ([8]; inhibitor 100 μM): 50 (2) %; residual metabolism (% of control), 2ME2 MG1 ([9]; inhibitor 25 μM): 56 (2) %; residual metabolism (% of control), 2ME2 MG1 ([9]; inhibitor 50 μM): 44 (2) %; residual metabolism (% of control), 2ME2 MG1 ([9]; inhibitor 100 μM): 19 (1) %
